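Exposure lasted 48 hours, with cells grown in 96-well plates and compounds tested at five concentrations. GI50 marks 50% less growth.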 The source made the active and inactive calls. Rule as the data show it: active = GI50 up to about 1.1 µM and inactive = higher.

Among the test systems are 786-0; CAKI-1; HCC 2998; HL-60; K562; KM12; M14; Malme-3M; NCI-H460; OVCAR-4; PC-3; SF-295; SK-MEL-2; SK-OV-3; UACC-257; UACC-62; UO-31; SF-539.
Assay in all cases: NCI-60 cell line screen, 48 h

On to `COc1c(C(=O)CC2c3c(cc4oc(C)cc(=O)c4c3OC)OC(=N)C2c2nc3ccccc3[nH]2)c(O)c(OC)c2occc12` (stereo not given), for which the GI50 with 786-0, in the assay with CAKI-1, with HCC 2998, with HL-60, in the assay on K562 and in the assay with KM12 was > 100 µM (inactive) each time. The GI50 in the assay with M14, in the assay with Malme-3M, in the assay with NCI-H460, in the assay with OVCAR-4, in the assay on PC-3 and in the assay with SF-295 was > 100 µM (inactive) throughout. The GI50 in the assay on SK-MEL-2, in the assay with SK-OV-3, in the assay with UACC-257, with UACC-62 and in the assay on UO-31 was > 100 µM (inactive) each time.

As to `Nc1nc2cc(Cl)ccc2n1N`, the GI50 in the assay with 786-0, in the assay on CAKI-1, in the assay with HCC 2998, with HL-60, in the assay on K562 and in the assay on KM12 was > 100 µM (inactive) in each case. In addition, the GI50 is > 100 µM (inactive) in the assay on M14; > 100 µM (inactive) in the assay on Malme-3M; > 100 µM (inactive) in the assay with PC-3; > 100 µM (inactive) with SF-295; > 100 µM (inactive) with SF-539; 33.8 µM (inactive) in the assay on SK-OV-3. For the same compound, the GI50 in the assay with UACC-257 is > 100 µM (inactive); in the assay on UACC-62, 86.9 µM (inactive); in the assay on UO-31, > 100 µM (inactive).

On to `Cc1ccc(-n2cnc3c(N)nc(N)nc32)cc1`, for which the GI50 in the assay on 786-0 was > 100 µM (inactive); in the assay on CAKI-1 it was > 100 µM (inactive); in the assay on HCC 2998, 76.2 µM (inactive); with KM12, 42.6 µM (inactive); with M14, > 100 µM (inactive); in the assay on Malme-3M, > 100 µM (inactive). Further, the GI50 in the assay on OVCAR-4, with PC-3, with SF-295, in the assay with SF-539, with SK-MEL-2 and in the assay on SK-OV-3 was > 100 µM (inactive) throughout. For the same compound, the GI50 with UACC-257 is > 100 µM (inactive); with UACC-62 it was 84.1 µM (inactive); in the assay with UO-31, 58.9 µM (inactive).

For `CN(C(=O)Cc1cc(Cl)c(Cl)cc1NC(=O)CCCN)[C@H]1CCCC[C@@H]1N1CCCC1`, the GI50 in the assay with 786-0 is 19.5 µM (inactive); with CAKI-1, > 100 µM (inactive); in the assay with HCC 2998 it was 16.6 µM (inactive); with HL-60, 22.4 µM (inactive); with K562 it was > 100 µM (inactive); in the assay with KM12, 18.7 µM (inactive). For the same compound, the GI50 in the assay on M14 is 19 µM (inactive); with Malme-3M, 17.1 µM (inactive); with OVCAR-4, 86.3 µM (inactive); in the assay on PC-3, 40.3 µM (inactive); in the assay with SF-295, 58.2 µM (inactive); in the assay with SK-MEL-2, 21.9 µM (inactive). For the same compound, the GI50 was 95.5 µM (inactive) in the assay on SK-OV-3, 19.1 µM (inactive) in the assay with UACC-257, 19.8 µM (inactive) with UACC-62 and > 100 µM (inactive) in the assay on UO-31.

In the case of `O=C1/C(=C/c2cccs2)N=C(c2ccccc2)N1C1Nc2cc3c(cc2S1)NC(N1C(=O)/C(=C/c2cccs2)N=C1c1ccccc1)S3` (stereo not given), the GI50 with 786-0 is 16.4 µM (inactive); in the assay on CAKI-1, 48.6 µM (inactive); with HCC 2998, 19.3 µM (inactive); in the assay with HL-60, 2.59 µM (inactive); in the assay on K562, 40.9 µM (inactive); in the assay on KM12, 32.8 µM (inactive). In addition, the GI50 was 18.2 µM (inactive) with M14; 6.97 µM (inactive) with NCI-H460; 24.9 µM (inactive) in the assay on OVCAR-4; 38.7 µM (inactive) in the assay on PC-3; 60.1 µM (inactive) in the assay on SF-295; 14 µM (inactive) with SF-539. In addition, the GI50 in the assay on SK-MEL-2 was 18.6 µM (inactive); with UACC-257, 71.9 µM (inactive); in the assay with UO-31 it was 35.3 µM (inactive).

With `Nc1ccc(C(=O)Nn2c(-c3ccccc3)nc3ccccc3c2=O)cc1`, the GI50 in the assay with 786-0, in the assay on HCC 2998, with HL-60, with K562, in the assay on KM12 and in the assay on M14 was > 100 µM (inactive) each time. The GI50 in the assay with Malme-3M, in the assay on NCI-H460, in the assay on OVCAR-4, in the assay on PC-3, in the assay on SF-295 and with SF-539 was > 100 µM (inactive) in each case. The GI50 with SK-OV-3, in the assay with UACC-257, in the assay on UACC-62 and in the assay on UO-31 was > 100 µM (inactive) in each case.

For `COc1ccc2c(c1)CC1Cc3cc(OC)c(OC)cc3CN1CC2` (stereo not given), the GI50 with 786-0 is 27.2 µM (inactive); in the assay on CAKI-1 it was 35.5 µM (inactive); in the assay on HCC 2998, 33.4 µM (inactive); in the assay with HL-60 it was 11.1 µM (inactive); with K562, 17.5 µM (inactive); with KM12, 34.7 µM (inactive). Moreover, the GI50 in the assay on M14 was 48.2 µM (inactive); in the assay on Malme-3M it was 40.2 µM (inactive); with NCI-H460, 23 µM (inactive); in the assay with OVCAR-4 it was 38.5 µM (inactive); in the assay on PC-3 it was 37.4 µM (inactive); with SF-295, 32.7 µM (inactive). Further, the GI50 was 70.1 µM (inactive) with SK-MEL-2; 71.6 µM (inactive) in the assay on SK-OV-3; 33.8 µM (inactive) with UACC-257; 25.2 µM (inactive) in the assay with UACC-62; 15.3 µM (inactive) in the assay on UO-31.

For the compound `[N-]=[N+]=CC(=O)OCCCCl`, the GI50 in the assay on 786-0, in the assay with CAKI-1, in the assay with HCC 2998, in the assay with HL-60, in the assay with KM12 and in the assay on Malme-3M was > 100 µM (inactive) in each case. The GI50 in the assay on NCI-H460 was 4.37 µM (inactive); in the assay on OVCAR-4, > 100 µM (inactive); in the assay with PC-3, > 100 µM (inactive); in the assay with SF-295, > 100 µM (inactive); in the assay with SK-MEL-2, > 100 µM (inactive); with SK-OV-3 it was > 100 µM (inactive). The GI50 in the assay with UACC-257, with UACC-62 and in the assay on UO-31 was > 100 µM (inactive) in each case.

Turning to `CCn1c(-c2ccc(C)cc2)cs/c1=N\C(P(=O)(O)O)P(=O)(O)O`, the GI50 with 786-0 is > 100 µM (inactive); in the assay on CAKI-1 it was > 100 µM (inactive); in the assay with HCC 2998, > 100 µM (inactive); with HL-60 it was 0.337 µM (active); in the assay on K562 it was > 100 µM (inactive); with KM12, > 100 µM (inactive). For the same compound, the GI50 with M14, in the assay on Malme-3M, in the assay on NCI-H460, in the assay on PC-3, with SF-295 and with SF-539 was > 100 µM (inactive) in each case. Besides, the GI50 in the assay with SK-OV-3, with UACC-257, in the assay with UACC-62 and with UO-31 was > 100 µM (inactive) throughout.

Turning to `O=P1(C(O)/C=C/c2ccccc2)N(Cc2ccccc2)[C@@H]2CCCC[C@H]2N1Cc1ccccc1` (stereo not given in full), the GI50 in the assay on 786-0 was 5.94 µM (inactive); with CAKI-1 it was 13.1 µM (inactive); in the assay on HCC 2998, 3.9 µM (inactive); in the assay on HL-60, 2.71 µM (inactive); in the assay with K562 it was 3.74 µM (inactive); in the assay with KM12 it was 4.66 µM (inactive). Further, the GI50 in the assay on M14 was 4.39 µM (inactive); with Malme-3M, 2.98 µM (inactive); in the assay with NCI-H460 it was 3.55 µM (inactive); in the assay on OVCAR-4, 5.38 µM (inactive); with PC-3 it was 3.14 µM (inactive); with SF-295, 4.42 µM (inactive). Besides, the GI50 with SK-MEL-2 is 2.62 µM (inactive); in the assay with SK-OV-3, 24 µM (inactive); in the assay on UACC-257, 4.32 µM (inactive); with UACC-62, 6.98 µM (inactive); in the assay on UO-31, 4.55 µM (inactive).

Turning to `COc1c2nc(CCl)n(C)c(=O)c2c(OC)c2c(=O)n(C)c(CCl)nc12`, the GI50 was 0.904 µM (active) in the assay with 786-0; 1.6 µM (inactive) in the assay on CAKI-1; 1.34 µM (inactive) in the assay on HCC 2998; 0.653 µM (active) in the assay with HL-60; 0.689 µM (active) with K562; 1.22 µM (inactive) in the assay with KM12. The GI50 with Malme-3M is 1.76 µM (inactive); with NCI-H460 it was 1.97 µM (inactive); with OVCAR-4, > 100 µM (inactive); with PC-3, 1.29 µM (inactive); with SF-295, 1.84 µM (inactive); in the assay with SF-539, 3.44 µM (inactive). In addition, the GI50 with UACC-257 was 1.81 µM (inactive); in the assay on UO-31, 1.24 µM (inactive).

On to `O=S(=O)(F)Cc1ccccc1` [PHENYLMETHYLSULFONYLFLUORIDE], for which the GI50 in the assay with 786-0, in the assay with CAKI-1, in the assay with HCC 2998, in the assay with K562, in the assay with KM12 and in the assay with M14 was > 100 µM (inactive) throughout. Besides, the GI50 in the assay with Malme-3M is 0.486 µM (active); in the assay on NCI-H460, > 100 µM (inactive); in the assay on OVCAR-4, > 100 µM (inactive); in the assay on PC-3 it was > 100 µM (inactive); in the assay on SF-295, > 100 µM (inactive); with SF-539, > 100 µM (inactive). Also, the GI50 with SK-MEL-2, with SK-OV-3, in the assay with UACC-257, in the assay with UACC-62 and with UO-31 was > 100 µM (inactive) each time.

Values taken from ChEMBL document CHEMBL1201862, “PubChem BioAssay data set” (2004).
